The target in assay [1] is benzodiazepine receptors. In words: Affinity for benzodiazepine receptors, displacement of ^3 H-labelled flunitrazepam in membranes from the rear portion of the brain in rats (Test 1). Conditions: 0.6×10^-9 mol of ^3 H-labelled flunitrazepam; membranes from the rear portion of rat brain; read-out: Test 1: concentration which inhibited 50% of the specific binding of ^3 H-labelled flunitrazepam (IC50). As to the method:
The affinity of the active ingredients for the benzodiazepine receptors was measured using a radioactively labelled (^3 H) compound flunitrazepam,and a modified version of the method of Squires and Braestrup (Nature, 1977, Vol. 266, p. 732). The values given in Table 2 below are the concentration (mol×10^-9) of the compound under test which inhibited 50% of the specific binding of 0.6×10^-9 mol of ^3 H-labelled flunitrazepam in preparations of membranes from the rear portion of the brain in rats (IC50 values).

In assay [2] the test system is benzodiazepine receptors. In words: in vivo binding to benzodiazepine receptors, Goeders et al (Test 2). To be noted: IP. The protocol:
Measuring of in vivo binding to benzodiazepine receptors was carried out according to the method described by Goeders et al, Life Sciences (1985), Vol. 37, p. 345.

On to `CN1Cc2c(C(=O)C3CC3)ncn2-c2ccnc(C3CC3)c2C1=O` [Example 2, 7-cyclopropyl-5,6-dihydro-5-methyl-6-oxo-4H-imidazo-[1,5-a]-pyrido [3,4-f]diazepin-3-yl cyclopropyl methanone], for which the IC50 at benzodiazepine receptors [1] worked out at 26 nM. The “Test 2 ED50” value with benzodiazepine receptors [2] was determined as 0.08 mg/kg.
As for `CN1Cc2c(C(=O)C3CC3)ncn2-c2cccc(C3CC3)c2C1=O` [Example 1, 7-cyclopropyl-5,6-dihydro-5-methyl-6-oxo-4H-imidazo-[1,5-a][1,4]-benzodiazepin-3-yl cyclopropyl methanone], the IC50 at benzodiazepine receptors [1] was 36 nM. Besides, the “Test 2 ED50” value with benzodiazepine receptors [2] stood at 0.15 mg/kg.
The like results for `CN1Cc2c(C(=O)C3CC3)ncn2-c2ccncc2C1=O` [Example 3, 5,6-dihydro-5-methyl-6-oxo-4H-imidazo [1,5-a]-pyrido-[3,4-f][1,4]-diazepin-3-yl cyclopropylmethanone] were, in that order, 105 nM and 0.13 mg/kg.

For the origin of these results see patent US5247079A, “7-cyclopropyl-imidazodiazepines” (Roussel Uclaf, priority 1990, dated 1993).
